# Assay results taken from patent US5710130A, “Antithrombotic agents” (Eli Lilly and Company, priority 1995, dated 1998).
# Structures can show the parent of a compound that is named as a salt.
# Tests used:
# [1] = test system: thrombin; conditions: Bajusz et al., J. Med. Chem. 33, 1729-1735 (1990); cited from earlier work
# [2] = early clinical studies, Simoons et al., Circulation 90, I-231 (1994); cited from earlier work
# [3] = target: factor Xa (Homo sapiens, UniProt P00742); experiment: Kass against factor Xa, chromogenic substrate; format: biochemical; conditions: substrate N-Benzoyl-Ile-Glu-Gly-Arg-p-nitroanilide
# [4] = test system: human plasma; experiment: Human plasma anticoagulation, activated partial thromboplastin time (APTT); format: biochemical; conditions: concentration required to double APTT, linear extrapolation
# In short: (§1)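 Compounds added across a wide concentration range to plasma; PT measured with Thromboplastin-C, APTT after 120 s Actin incubation then 0.02 M CaCl2, TT with bovine thrombin (10 NIH units/mL). Clotting-time doubling concentrations estimated by linear extrapolation.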
# [5] = test system: human plasma; experiment: Human plasma anticoagulation, prothrombin time (PT); format: biochemical; conditions: concentration required to double PT, linear extrapolation
# In short: as §1
# [6] = test system: human plasma; experiment: Human plasma anticoagulation, thrombin time (TT); format: biochemical; conditions: concentration required to double thrombin time, linear extrapolation
# In short: as §1
# [7] = target: Human Thrombin (Homo sapiens, UniProt P00734); experiment: Inhibition of thrombin amidase activity (Kass), chromogenic substrate; format: biochemical; conditions: mean Kass over a range of concentrations; substrate N-benzoyl-Phe-Val-Arg-p-nitroanilide
# [8] = Index of bioavailability (% Relative Activity) from plasma TT time course, oral vs i.v.; format: in vivo; conditions: p.o. dose per legend (20, 60 or 50 mg/kg)
# Protocol: Parke Davis) at 37° C. […] Assays are done in duplicate and averaged. […] Each sample population represented alternating sequential time points.
# [9] = target: T1, activated protein C (aPC) (Homo sapiens, UniProt P04070); experiment: Inhibition of activated protein C (aPC), chromogenic substrate; format: biochemical; conditions: statement in words
# T1 construct: made in house
# Protocol: By substantially following the procedures described above for human thrombin, and using other human blood coagulation system serine proteases and proteases of the fibrinolytic system with the appropriate chromogenic substrates, identified below, selectivity of the compounds of the present invention with respect to the coagulation factor serine proteases and with respect to the fibrinolytic system serine proteases are evaluated as well as their substantial lack of interference with serine proteases of the fibrinolytic system. Thrombin inhibitors preferably should spare fibrinolysis induced by urokinase, tissue plasminogen activator (t-PA) and streptokinase. This would be important to the therapeutic use of such agents as an adjunct to streptokinase, t-PA or urokinase thrombolytic therapy and to the use of such agents as an endogenous fibrinolysis-sparing (with respect to t-PA and urokinase) antithrombotic agent. In addition to the lack of interference with the amidase activity of the fibrinolytic proteases, such fibrinolytic system sparing can be studied by the use of human plasma clots and their lysis by the respective fibrinolytic plasminogen activators.
# Human factors X, Xa, IXa, XIa, and XIIa are purchased from Enzyme Research Laboratories, South Bend, Ind.; human urokinase from Leo Pharmaceuticals, Denmark; and recombinant activated Protein C (aPC) is prepared at Eli Lilly and Co. substantially according to U.S. Pat. No. 4,981,952. Chromogenic substrates: N-Benzoyl-Ile-Glu-Gly-Arg-p-nitroanilide (for factor Xa); N-Cbz-D-Arg-Gly-Arg-p-nitroanilide (for factor IXa assay as the factor Xa substrate); Pyroglutamyl-Pro-Arg-p-nitroanilide (for Factor XIa and for aPC); H-D-Pro-Phe-Arg-p-nitroanilide (for factor XIIa); and Pyroglutamyl-Gly-Arg-p-nitroanilide (for urokinase); are purchased from KabiVitrum, Stockholm, Sweden, or from Midwest Biotech, Fishers, Ind.. Bovine trypsin is purchased from Worthington Biochemicals, Freehold, N.J., and human plasma kallikrein from Kabi Vitrum, Stockholm, Sweden. […]
# T1 sequence (P04070 212-450 limits assumed): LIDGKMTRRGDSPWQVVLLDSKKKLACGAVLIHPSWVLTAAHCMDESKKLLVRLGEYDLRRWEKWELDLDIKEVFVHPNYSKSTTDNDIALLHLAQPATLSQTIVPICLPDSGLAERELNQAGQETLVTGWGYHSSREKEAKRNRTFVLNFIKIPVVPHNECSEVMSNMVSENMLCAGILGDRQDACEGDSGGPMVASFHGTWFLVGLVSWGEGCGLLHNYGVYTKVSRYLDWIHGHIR
# T1 sequence (P04070 43-197 partner limits assumed): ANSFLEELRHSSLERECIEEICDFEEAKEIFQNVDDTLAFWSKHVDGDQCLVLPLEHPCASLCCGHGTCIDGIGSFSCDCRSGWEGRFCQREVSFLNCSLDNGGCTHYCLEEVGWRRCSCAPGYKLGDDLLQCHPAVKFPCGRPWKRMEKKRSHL
# Chain of factor Xa (P00742 235-488 limits assumed): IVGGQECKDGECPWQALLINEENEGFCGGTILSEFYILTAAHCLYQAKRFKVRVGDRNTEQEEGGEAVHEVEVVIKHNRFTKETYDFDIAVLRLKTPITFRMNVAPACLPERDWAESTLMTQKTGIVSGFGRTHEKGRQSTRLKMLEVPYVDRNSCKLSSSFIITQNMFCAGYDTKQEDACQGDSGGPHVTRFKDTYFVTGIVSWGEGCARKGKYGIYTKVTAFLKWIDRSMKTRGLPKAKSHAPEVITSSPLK
# Chain of factor Xa (P00742 41-179 partner limits assumed): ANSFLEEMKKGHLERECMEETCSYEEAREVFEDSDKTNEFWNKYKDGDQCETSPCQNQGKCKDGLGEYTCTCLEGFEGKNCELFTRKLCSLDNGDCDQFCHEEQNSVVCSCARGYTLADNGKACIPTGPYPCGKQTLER
SMILES,direct inhibition of thrombin [1],anticoagulant in man [2],Kass Xa [3],Human Plasma Anticoagulation 2x Clotting time APTT [4],Human Plasma Anticoagulation 2x Clotting time PT [5],Human Plasma Anticoagulation 2x Clotting time TT [6],Kass Human Thrombin [7],"% oral/i.v. activity (Rat), screening not completed [8]",inhibition of activated protein C (aPC) [9]
CC(C)(C)OC(=O)N[C@H](Cc1ccccc1)C(=O)N1CCC[C@H]1C(=O)N[C@H](C=O)CCCNC(=N)N [Boc-D-Phe-Pro-Arg-H],potent direct inhibition,,,,,,,,
CN[C@H](Cc1ccccc1)C(=O)N1CCC[C@H]1C(=O)N[C@H](C=O)CCCNC(=N)N.O=S(=O)(O)O [D-MePhe-Pro-Arg-H sulfate],,is an anticoagulant in man,,,,,,,
CN[C@H](Cc1ccccc1)C(=O)N1CCC[C@H]1C(=O)N[C@H](C=O)CCCNC(=N)N [D-MePhe-Pro-Arg-H],potent direct inhibition,,,,,,,,
N=C(N)NCCC[C@@H](C=O)NC(=O)[C@@H]1CCCN1C(=O)[C@H](N)Cc1ccccc1 [D-Phe-Pro-Arg-H],potent direct inhibition,,,,,,,,
"CCS(=O)(=O)N[C@H](Cc1ccccc1)C(=O)N1CCC[C@H]1C(=O)NCCc1cccc(N=C(N)N)c1.Cl [Example 37, EtSO2 -D-Phe-Pro-m-NHCH2 CH2 C6 H4 NHC(NH)NH2.HCl]",,,< 0.009 × 10^6 (L/mole),"> 9,000 ng/mL","> 9,000 ng/mL","> 9,000 ng/mL",0.02 × 10^6 (L/mole),,
"Cl.Cl.N=C(N)c1ccc(CNC(=O)C2CC3CCCCC3N2C(=O)C2NCCC3CCCCC32)cc1 [Example 42, D-1-Piq-cis-Ohi-p-NHCH2 C6 H4 C(NH)NH2.2HCl]",,,,270 ng/mL,320 ng/mL,20 ng/mL,38 × 10^6 (L/mole),NC2,
"Cl.Nc1ccc(CNC(=O)[C@@H]2CCCN2C(=O)[C@@H](CC2CCCCC2)NCC(=O)O)c(F)c1 [Example 64, HO2 CCH2 -D-Cha-Pro-4-NHCH2 -3-F-C6 H3 NH2.HCl]",,,,900 ng/mL,650 ng/mL,23 ng/mL,15 × 10^6 (L/mole),NC^3,
"N=C(N)c1ccc(CNC(=O)[C@@H]2CCCN2C(=O)[C@@H](CC2CCCCC2)NCC(=O)O)nc1 [Example 66, N-(carboxymethyl)-D-cyclohexylalanyl-N-[[5-(aminoiminomethyl)pyridin-2-yl]methyl]-L-prolinamide hydrochloride]",,,,180 ng/mL,270 ng/mL,7.9 ng/mL,,,very weak inhibition
"N=C(N)C1=CNC(CNC(=O)[C@@H]2CCCN2C(=O)[C@@H](CC2CCCCC2)NCC(=O)O)CC1 (stereo partly drawn) [Example 68, N-(carboxymethyl)-D-cyclohexylalanyl-N-[[5-(aminoiminomethyl)-1,2,3,4-tetrahydropyridin-2-yl]methyl]L-prolinamide hydrochloride]",,,,49 ng/mL,190 ng/mL,4 ng/mL,,,very weak inhibition
"Cl.Cl.Cl.N=C(N)c1ccc(CNC(=O)[C@@H]2CCCN2C(=O)[C@@H](CC2CCCCC2)NCC(=O)O)nn1 [Example 69, N-(carboxymethyl)-D-cyclohexylalanyl-N-[[6-(aminoiminomethyl)pyridazin-3-yl]methyl]-L-prolinamide tri-hydrochloride]",,,,110 ng/mL,220 ng/mL,5 ng/mL,340 × 10^6 (L/mole),,very weak inhibition
